# Like-named read-outs stand apart in the source and are kept apart here.
# Details: ester bond, 18-membered ring
smiles,measurement,setting,value
CCn1c(-c2cc(N3CCN4CCCC[C@@H]4C3)cnc2[C@H](C)OC)c2c3cc(ccc31)-c1cc(cc(C(F)F)c1)C[C@H](NC(=O)OC(C)(C)C)C(=O)N1CCC[C@H](N1)C(=O)OCC(C)(C)C2,"ring closure, isolated yield","from CCn1c(-c2cc(N3CCN4CCCC[C@@H]4C3)cnc2[C@H](C)OC)c(CC(C)(C)CO)c2cc(-c3cc(C[C@H](NC(=O)OC(C)(C)C)C(=O)N4CCC[C@@H](C(=O)O)N4)cc(C(F)F)c3)ccc21, EDCI/HOBt/DIEA, DCM, 5.27 mM, 25.0 °C",90%
CCn1c(-c2cc(N3CCN4CCOC[C@@H]4C3)cnc2[C@H](C)OC)c2c3cc(ccc31)-c1cc(cc(C(F)F)c1)C[C@H](NC(=O)OC(C)(C)C)C(=O)N1CCC[C@H](N1)C(=O)OCC(C)(C)C2,"ring closure, isolated yield","from CCn1c(-c2cc(N3CCN4CCOC[C@@H]4C3)cnc2[C@H](C)OC)c(CC(C)(C)CO)c2cc(-c3cc(C[C@H](NC(=O)OC(C)(C)C)C(=O)N4CCC[C@@H](C(=O)O)N4)cc(C(F)F)c3)ccc21, EDCI/HOBt/DIEA, DCM, 10.7 mM, 25.0 °C",42%
CCn1c(-c2cc(N3CCN4CCOC[C@@H]4C3)cnc2[C@H](C)OC)c2c3cc(ccc31)-c1csc(n1)C[C@H](NC(=O)OC(C)(C)C)C(=O)N1CCC[C@H](N1)C(=O)OCC(C)(C)C2,"ring closure, isolated yield","from CCn1c(-c2cc(N3CCN4CCOC[C@@H]4C3)cnc2[C@H](C)OC)c(CC(C)(C)CO)c2cc(-c3csc(C[C@H](NC(=O)OC(C)(C)C)C(=O)N4CCC[C@@H](C(=O)O)N4)n3)ccc21, EDCI/HOBt/DIPEA, DCM, 11.3 mM, 25.0 °C",52%
CCn1c(-c2cc(N3CCN4CCOC[C@@H]4C3)cnc2[C@H](C)OC)c2c3cc(ccc31)-c1cc(CF)cc(c1)C[C@H](NC(=O)OC(C)(C)C)C(=O)N1CCC[C@H](N1)C(=O)OCC(C)(C)C2,"ring closure, isolated yield","from CCn1c(-c2cc(N3CCN4CCOC[C@@H]4C3)cnc2[C@H](C)OC)c(CC(C)(C)CO)c2cc(-c3cc(CF)cc(C[C@H](NC(=O)OC(C)(C)C)C(=O)N4CCC[C@@H](C(=O)O)N4)c3)ccc21, EDCI/HOBt/DIEA, DCM, 11.3 mM, 0.0 °C",69%
CCn1c(-c2cc(N3CCN4CCC[C@@H]4C3)cnc2[C@H](C)OC)c2c3cc(ccc31)-c1csc(n1)C[C@H](NC(=O)OC(C)(C)C)C(=O)N1CCC[C@H](N1)C(=O)OCC(C)(C)C2,"ring closure, isolated yield","from CCn1c(-c2cc(N3CCN4CCC[C@@H]4C3)cnc2[C@H](C)OC)c(CC(C)(C)CO)c2cc(-c3csc(C[C@H](NC(=O)OC(C)(C)C)C(=O)N4CCC[C@@H](C(=O)O)N4)n3)ccc21, EDCI/HOBt/DIEA, DCM, 111.6 mM, 25.0 °C, 16.0 h",37%
CO[C@@H](C)c1ncc(N2CCN3CCOC[C@@H]3C2)cc1-c1c2c3cc(ccc3n1CC(F)(F)F)-c1csc(n1)C[C@H](NC(=O)OC(C)(C)C)C(=O)N1CCC[C@H](N1)C(=O)OCC(C)(C)C2,"ring closure, isolated yield","from CO[C@@H](C)c1ncc(N2CCN3CCOC[C@@H]3C2)cc1-c1c(CC(C)(C)CO)c2cc(-c3csc(C[C@H](NC(=O)OC(C)(C)C)C(=O)N4CCC[C@@H](C(=O)O)N4)n3)ccc2n1CC(F)(F)F, EDCI/HOBt/DIEA, DCM, 10.6 mM, 25.0 °C",64%
CCn1c(-c2cc(N3CCN(C(=O)OCc4ccccc4)CC3)cnc2[C@H](C)OC)c2c3cc(ccc31)-c1csc(n1)C[C@H](NC(=O)OC(C)(C)C)C(=O)N1CCC[C@H](N1)C(=O)OCC(C)(C)C2,"ring closure, isolated yield","from CCn1c(-c2cc(N3CCN(C(=O)OCc4ccccc4)CC3)cnc2[C@H](C)OC)c(CC(C)(C)CO)c2cc(-c3csc(C[C@H](NC(=O)OC(C)(C)C)C(=O)N4CCC[C@@H](C(=O)O)N4)n3)ccc21, EDCI/HOBt/DIPEA, MeCN, 10.3 mM, 25.0 °C",55%
CCn1c(-c2cc(N3CCN4CCOC[C@@H]4C3)cnc2[C@H](C)OC)c2c3cc(ccc31)N1CCO[C@@H](C[C@H](NC(=O)OC(C)(C)C)C(=O)N3CCC[C@H](N3)C(=O)OCC(C)(C)C2)C1,"ring closure, isolated yield","from CCn1c(-c2cc(N3CCN4CCOC[C@@H]4C3)cnc2[C@H](C)OC)c(CC(C)(C)CO)c2cc(N3CCO[C@@H](C[C@H](NC(=O)OC(C)(C)C)C(=O)N4CCC[C@@H](C(=O)O)N4)C3)ccc21, EDCI/HOBt/NMM, DCM, 11.2 mM, 25.0 °C",51%
CO[C@@H](C)c1ncc(N2CCN3CCOC[C@@H]3C2)cc1-c1c2c3cc(ccc3n1CC(F)(F)F)N1CCO[C@@H](C[C@H](NC(=O)OC(C)(C)C)C(=O)N3CCC[C@H](N3)C(=O)OCC(C)(C)C2)C1,"ring closure, isolated yield","from CO[C@@H](C)c1ncc(N2CCN3CCOC[C@@H]3C2)cc1-c1c(CC(C)(C)CO)c2cc(N3CCO[C@@H](C[C@H](NC(=O)OC(C)(C)C)C(=O)N4CCC[C@@H](C(=O)O)N4)C3)ccc2n1CC(F)(F)F, EDCI/HOBt/NMM, DCM, 10.6 mM, 25.0 °C",48%
CO[C@@H](C)c1ncc(N2CCN3CCCC[C@@H]3C2)cc1-c1c2c3cc(ccc3n1CC(F)(F)F)-c1cccc(c1)C[C@H](NC(=O)OC(C)(C)C)C(=O)N1CCC[C@H](N1)C(=O)OCC(C)(C)C2,"ring closure, isolated yield","from CO[C@@H](C)c1ncc(N2CCN3CCCC[C@@H]3C2)cc1-c1c(CC(C)(C)CO)c2cc(-c3cccc(C[C@H](NC(=O)OC(C)(C)C)C(=O)N4CCC[C@@H](C(=O)O)N4)c3)ccc2n1CC(F)(F)F, EDCI.HCl/HOBt/DIPEA, DCM, 12.9 mM, 0.0 °C",65%
CCn1c(-c2cc(N3CCN(C4CC4)CC3)cnc2[C@H](C)OC)c2c3cc(ccc31)N1CCO[C@@H](C[C@H](NC(=O)OCc3ccccc3)C(=O)N3CCC[C@H](N3)C(=O)OCC(C)(C)C2)C1,"ring closure, isolated yield","from CCn1c(-c2cc(N3CCN(C4CC4)CC3)cnc2[C@H](C)OC)c(CC(C)(C)CO)c2cc(N3CCO[C@@H](C[C@H](NC(=O)OCc4ccccc4)C(=O)N4CCC[C@@H](C(=O)O)N4)C3)ccc21, EDCI/HOBt/DIEA, DCM, 11.3 mM, 30.0 °C",50%
CCn1c(-c2cc(N3CCN4CCCC[C@@H]4C3)cnc2[C@H](C)OC)c2c3cc(ccc31)N1CCO[C@@H](C[C@H](NC(=O)OC(C)(C)C)C(=O)N3CCC[C@H](N3)C(=O)OCC(C)(C)C2)C1,"ring closure, isolated yield","from CCn1c(-c2cc(N3CCN4CCCC[C@@H]4C3)cnc2[C@H](C)OC)c(CC(C)(C)CO)c2cc(N3CCO[C@@H](C[C@H](NC(=O)OC(C)(C)C)C(=O)N4CCC[C@@H](C(=O)O)N4)C3)ccc21, EDCI/HOBt/DIPEA, DMF, 11.2 mM, 25.0 °C",73%
CCn1c(-c2cc(N3CCN4CCCC[C@@H]4C3)cnc2[C@H](C)OC)c2c3cc(ccc31)-c1csc(n1)C[C@H](NC(=O)OC(C)(C)C)C(=O)N1CCC[C@H](N1)C(=O)OCC(C)(C)C2,"ring closure, isolated yield","from CCn1c(-c2cc(N3CCN4CCCC[C@@H]4C3)cnc2[C@H](C)OC)c(CC(C)(C)CO)c2cc(-c3csc(C[C@H](NC(=O)OC(C)(C)C)C(=O)N4CCC[C@@H](C(=O)O)N4)n3)ccc21, EDCI/HOBt/DIPEA, DCM, 11.3 mM, 25.0 °C",49%
CCn1c(-c2cc(N3CCN4CCC[C@@H]4C3)cnc2[C@H](C)OC)c2c3cc(ccc31)-c1cc(cc(C(F)F)c1)C[C@H](NC(=O)OC(C)(C)C)C(=O)N1CCC[C@H](N1)C(=O)OCC(C)(C)C2,"ring closure, isolated yield","from CCn1c(-c2cc(N3CCN4CCC[C@@H]4C3)cnc2[C@H](C)OC)c(CC(C)(C)CO)c2cc(-c3cc(C[C@H](NC(=O)OC(C)(C)C)C(=O)N4CCC[C@@H](C(=O)O)N4)cc(C(F)F)c3)ccc21, EDCI/HOBt/DIEA, DCM, 10.1 mM, 25.0 °C",78%
CO[C@@H](C)c1ncc(N2CCN(C3CC3)CC2)cc1-c1c2c3cc(ccc3n1CC(F)(F)F)C1=CCCN(C1)C[C@H](NC(=O)OC(C)(C)C)C(=O)N1CCC[C@H](N1)C(=O)OCC(C)(C)C2,"ring closure, isolated yield","from CO[C@@H](C)c1ncc(N2CCN(C3CC3)CC2)cc1-c1c(CC(C)(C)CO)c2cc(C3=CCCN(C[C@H](NC(=O)OC(C)(C)C)C(=O)N4CCC[C@@H](C(=O)O)N4)C3)ccc2n1CC(F)(F)F, EDCI/HOBt/DIEA, DCM, 10.8 mM, 25.0 °C",73%
CO[C@@H](C)c1ncc(N2CCN(C3CC3)CC2)cc1-c1c2c3cc(ccc3n1CC(F)(F)F)N1CCO[C@@H](C[C@H](NC(=O)OC(C)(C)C)C(=O)N3CCC[C@H](N3)C(=O)OCC(C)(C)C2)C1,"ring closure, isolated yield","from CO[C@@H](C)c1ncc(N2CCN(C3CC3)CC2)cc1-c1c(CC(C)(C)CO)c2cc(N3CCO[C@@H](C[C@H](NC(=O)OC(C)(C)C)C(=O)N4CCC[C@@H](C(=O)O)N4)C3)ccc2n1CC(F)(F)F, EDCI/HOBt/DIEA, DCM, 9.22 mM, 25.0 °C",64%
CCn1c(-c2cc(N3CCN(C4CC4)CC3)cnc2[C@H](C)OC)c2c3cc(ccc31)-c1cccc(c1)C[C@H](NC(=O)OC(C)(C)C)C(=O)N1CCC[C@H](N1)C(=O)OCC(C)(C)C2,"ring closure, isolated yield","from CCn1c(-c2cc(N3CCN(C4CC4)CC3)cnc2[C@H](C)OC)c(CC(C)(C)CO)c2cc(-c3cccc(C[C@H](NC(=O)OC(C)(C)C)C(=O)N4CCC[C@@H](C(=O)O)N4)c3)ccc21, EDCI/HOBt/DIEA, DCM, 14.4 mM, 25.0 °C",64%
CCn1c(-c2cc(N3CCN4CCC[C@@H]4C3)cnc2[C@H](C)OC)c2c3cc(ccc31)-c1cccc(c1)C[C@H](NC(=O)OC(C)(C)C)C(=O)N1CCC[C@H](N1)C(=O)OCC(C)(C)C2,"ring closure, isolated yield","from CCn1c(-c2cc(N3CCN4CCC[C@@H]4C3)cnc2[C@H](C)OC)c(CC(C)(C)CO)c2cc(-c3cccc(C[C@H](NC(=O)OC(C)(C)C)C(=O)N4CCC[C@@H](C(=O)O)N4)c3)ccc21, EDCI/HOBt/DIPEA, DCM, 16.7 mM, 25.0 °C",42%
